# Measurements as given in patent publication EP4778531A1, “MUSCLE RELAXANT ANTAGONIST FOR REVERSAL FOR BENZYLISOQUINOLINE MUSCLE RELAXANT” (priority 2023, dated 2025).
# How the values were obtained:
# [1] = system: Hypersensitivity-Related Factors; assay: Antibody array (Ary028 immune chip kit): hypersensitivity-related factors after repeated dosing; assay type: in vivo; conditions: ICR mice; tail vein once daily for 5 days; Adamgammadex sodium 1 g/kg, Sugammadex sodium 1 mg/kg, Neostigmine 0.3 mg/kg; pooled plasma of 2 mice; N.D. = below minimum detection limit
# Procedure: An antibody array is a type of protein chip characterized by miniaturization, integration, and high throughput. It can be used to detect the expression abundance of proteins related to a specific physiological or pathological process. The principle involves arranging capture antibodies on a membrane or glass slide, incubating with the sample, adding biotin-labeled antibodies against the target proteins, and finally using HRP-streptavidin or fluorescein-streptavidin to detect the chip signal. Signals are detected using chemiluminescence or HiLyte™ Fluor 555-streptavidin.
# In this experiment, ICR mice were randomly divided into a blank group, Adamgammadex sodium (1 g/kg) group, Sugammadex sodium (1 mg/kg) group, and Neostigmine (0.3 mg/kg) group, with 2 mice per group. Mice in each group given the corresponding dosage of compound via the tail vein once daily for 5 consecutive days. On the last day after administration, plasma from the 2 animals per group was mixed and detected using the Ary028 immune chip kit. Specific detection steps were as follows: • (1) Sample volume determination: 200 µL serum sample per Array unit. (2) Blocking protein chip: Each membrane was blocked with 2 mL of corresponding Array Buffer, incubated on a shaker for 1 hour. (3) Sample processing: Samples were diluted with corresponding Array Buffer to a volume of 1.5 mL per membrane, the corresponding Array unit was added, and incubated overnight with the Array protein membrane at 4°C. (4) Membranes were washed three times with corresponding Wash buffer, then diluted detection antibody was added and incubated at room temperature for 1 h. (5) Membranes were washed three times with corresponding Wash buffer, streptavidin-HRP was added and incubated for 30min at room temperature with shaking. (6) Membranes were washed three times with corresponding Wash buffer, 1 mL of chemiluminescent reagent was added to each well, and developed on a chemiluminescence imager. (7) Fluorescence intensity was used to represent the relative concentration of the corresponding protein.
# [2] = system: cisatracurium-induced guinea pig muscle relaxation model; assay: Arterial blood pressure and heart rate in the cisatracurium muscle relaxation model; assay type: in vivo, Hartley guinea pigs
# Procedure: Ninety (90) qualified Hartley guinea pigs, male, were used. Sixty (60) animals were randomly divided into 6 experimental groups based on body weight using a stratified random method: negative control group, positive control group, low-dose test group, medium-dose test group, high-dose test group, and combination group, with 10 animals per group (n=10). The remaining animals served as spares. The negative control group received 0.9% sodium chloride. The positive control group received 0.0625 mg/kg neostigmine methylsulfate (referred to as neostigmine). The low-dose test group received 10 mg/kg adamgammadex sodium. The medium-dose test group received 20 mg/kg adamgammadex sodium. The high-dose test group received 40 mg/kg adamgammadex sodium. The combination group received 10 mg/kg adamgammadex sodium and 0.03125 mg/kg neostigmine. The administration volume for all groups was 1 mL/kg.
# Adaptive feeding was conducted after the quarantine period. On the day of the experiment, guinea pigs were weighed, administered atropine (0.1 mg/kg) intramuscularly, and then anesthetized with an intraperitoneal injection of anesthetic (pentobarbital sodium 10 mg/kg, urethane 1000 mg/kg). After fixation, the animals were intubated and connected to a small animal ventilator. Both external jugular veins and the right carotid artery were cannulated. The left jugular vein was used for cisatracurium infusion, the right jugular vein for injection of different test substances, and the carotid artery was connected to a multi-channel physiological signal acquisition and processing system for continuous monitoring of arterial blood pressure and heart rate. Electrode patches were subcutaneously placed behind the left femur and tibia of the guinea pig, and two stimulating electrodes of the neuromuscular monitor were fixed to the two electrode patches. The left hind paw was fixed on a custom-made platform. A sensor was fixed to the skin surface over the gastrocnemius muscle of the left hind limb, and a skin temperature probe was fixed to a flat area of skin. Continuous single-twitch stimulation was applied at 1 Hz. After the twitch height stabilized, the mode was switched to train-of-four stimulation (TOF mode, stimulus current 5 mA, frequency 2 Hz, pulse width 0.2 ms, interval between trains 15 s) for at least 5 min. Calibration was then performed using Calibration Mode 2, followed by TOF mode stimulation. After obtaining a stable stimulation response for at least 2 min, cisatracurium solution was infused intravenously using a dual-channel micro-infusion pump, and the start time of infusion was recorded. […] At this point, cisatracurium infusion was stopped. After stopping the infusion, neuromuscular function was allowed to recover spontaneously. When neuromuscular function reached moderate recovery, the test drug formulation was administered intravenously. Neuromuscular function was allowed to recover completely, and the administration time was recorded (Figure 1). Using the time of spontaneous recovery to moderate neuromuscular function (TOF50) as zero point, the times for recovery from TOF50 to TOF75, TOF75 to TOF90, and TOF50 to TOF90 were calculated for each animal (Table 1-2). Arterial blood pressure (systolic, diastolic, mean arterial pressure) and heart rate were recorded before cisatracurium infusion, at the time cisatracurium infusion was stopped, at the time of moderate neuromuscular recovery, and at the time of complete neuromuscular function recovery (Tables 3-7). Data were expressed as Mean ± SD. Statistical T-tests were performed using SPSS software to evaluate differences in blood pressure, heart rate, and residual neuromuscular blockade recovery times. P < 0.05 was considered statistically significant.
# [3] = high-dose test group, 40 mg/kg i.v.
# [4] = low-dose test group, 10 mg/kg i.v.
# [5] = medium-dose test group, 20 mg/kg i.v.
# [6] = positive control group, 0.0625 mg/kg i.v.
compound,measurement,setting,value
Adamgammadex sodium [Compound 1],Fluorescence Intensity CCL12 (Monocyte chemotactic receptor 5),[1],168.83
same,Fluorescence Intensity IL-4 (Interleukin 4),[1],225.32
same,Fluorescence Intensity IL-6 (Interleukin-6),[1],89.83
same,effect on animal blood pressure or heart rate (in words),"[2]; 10, 20, and 40 mg/kg",no effect on animal blood pressure or heart rate
same,Heart rate Administration,[2]; [3],258+18 bmp
same,Heart rate Complete Recovery,[2]; [3],258+16 bmp
same,Heart rate Moderate Recovery,[2]; [3],257+18 bmp
same,Heart rate Muscle Relaxation End,[2]; [3],249±21 bmp
same,Heart rate Muscle Relaxation Start,[2]; [3],243+27 bmp
same,Mean Arterial Pressure mAP Administration,[2]; [3],70±8 mmHg
same,Mean Arterial Pressure mAP Complete Recovery,[2]; [3],73+10 mmHg
same,Mean Arterial Pressure mAP Moderate Recovery,[2]; [3],72+8 mmHg
same,Mean Arterial Pressure mAP Muscle Relaxation End,[2]; [3],65+10 mmHg
same,Mean Arterial Pressure mAP Muscle Relaxation Start,[2]; [3],64+12 mmHg
same,Mean Diastolic Pressure mDP Administration,[2]; [3],60+7 mmHg
same,Mean Diastolic Pressure mDP Complete Recovery,[2]; [3],63±9 mmHg
same,Mean Diastolic Pressure mDP Moderate Recovery,[2]; [3],62±8 mmHg
same,Mean Diastolic Pressure mDP Muscle Relaxation End,[2]; [3],56+9 mmHg
same,Mean Diastolic Pressure mDP Muscle Relaxation Start,[2]; [3],56+12 mmHg
same,Mean Pulse Pressure Administration,[2]; [3],21±5 mmHg
same,Mean Pulse Pressure Complete Recovery,[2]; [3],21+5 mmHg
same,Mean Pulse Pressure Moderate Recovery,[2]; [3],21+4 mmHg
same,Mean Pulse Pressure Muscle Relaxation End,[2]; [3],19±5 mmHg
same,Mean Pulse Pressure Muscle Relaxation Start,[2]; [3],18+4 mmHg
same,Mean Systolic Pressure mSP Administration,[2]; [3],81±10 mmHg
same,Mean Systolic Pressure mSP Complete Recovery,[2]; [3],84±11 mmHg
same,Mean Systolic Pressure mSP Moderate Recovery,[2]; [3],83±9 mmHg
same,Mean Systolic Pressure mSP Muscle Relaxation End,[2]; [3],75±11 mmHg
same,Mean Systolic Pressure mSP Muscle Relaxation Start,[2]; [3],74±12 mmHg
same,Heart rate Administration,[2]; [4],269+20 bmp
same,Heart rate Complete Recovery,[2]; [4],270+18 bmp
same,Heart rate Moderate Recovery,[2]; [4],268+20 bmp
same,Heart rate Muscle Relaxation End,[2]; [4],261+20 bmp
same,Heart rate Muscle Relaxation Start,[2]; [4],259+30 bmp
same,Mean Arterial Pressure mAP Administration,[2]; [4],75+15 mmHg
same,Mean Arterial Pressure mAP Complete Recovery,[2]; [4],76+13 mmHg
same,Mean Arterial Pressure mAP Moderate Recovery,[2]; [4],74+10 mmHg
same,Mean Arterial Pressure mAP Muscle Relaxation End,[2]; [4],70+11 mmHg
same,Mean Arterial Pressure mAP Muscle Relaxation Start,[2]; [4],70±16 mmHg
same,Mean Diastolic Pressure mDP Administration,[2]; [4],67+13 mmHg
same,Mean Diastolic Pressure mDP Complete Recovery,[2]; [4],68+11 mmHg
same,Mean Diastolic Pressure mDP Moderate Recovery,[2]; [4],65+8 mmHg
same,Mean Diastolic Pressure mDP Muscle Relaxation End,[2]; [4],62+9 mmHg
same,Mean Diastolic Pressure mDP Muscle Relaxation Start,[2]; [4],61+14 mmHg
same,Mean Pulse Pressure Administration,[2]; [4],19+6 mmHg
same,Mean Pulse Pressure Complete Recovery,[2]; [4],18+6 mmHg
same,Mean Pulse Pressure Moderate Recovery,[2]; [4],18±5 mmHg
same,Mean Pulse Pressure Muscle Relaxation End,[2]; [4],17+4 mmHg
same,Mean Pulse Pressure Muscle Relaxation Start,[2]; [4],18±5 mmHg
same,Mean Systolic Pressure mSP Administration,[2]; [4],85±18 mmHg
same,Mean Systolic Pressure mSP Complete Recovery,[2]; [4],86±16 mmHg
same,Mean Systolic Pressure mSP Moderate Recovery,[2]; [4],83±12 mmHg
same,Mean Systolic Pressure mSP Muscle Relaxation End,[2]; [4],79±12 mmHg
same,Mean Systolic Pressure mSP Muscle Relaxation Start,[2]; [4],79±18 mmHg
same,Heart rate Administration,[2]; [5],259+38 bmp
same,Heart rate Complete Recovery,[2]; [5],263+36 bmp
same,Heart rate Moderate Recovery,[2]; [5],261+35 bmp
same,Heart rate Muscle Relaxation End,[2]; [5],247+42 bmp
same,Heart rate Muscle Relaxation Start,[2]; [5],242+43 bmp
same,Mean Arterial Pressure mAP Administration,[2]; [5],70+8 mmHg
same,Mean Arterial Pressure mAP Complete Recovery,[2]; [5],73+6 mmHg
same,Mean Arterial Pressure mAP Moderate Recovery,[2]; [5],74+7 mmHg
same,Mean Arterial Pressure mAP Muscle Relaxation End,[2]; [5],65+10 mmHg
same,Mean Arterial Pressure mAP Muscle Relaxation Start,[2]; [5],64±8 mmHg
same,Mean Diastolic Pressure mDP Administration,[2]; [5],61+8 mmHg
same,Mean Diastolic Pressure mDP Complete Recovery,[2]; [5],64+6 mmHg
same,Mean Diastolic Pressure mDP Moderate Recovery,[2]; [5],64+6 mmHg
same,Mean Diastolic Pressure mDP Muscle Relaxation End,[2]; [5],57+9 mmHg
same,Mean Diastolic Pressure mDP Muscle Relaxation Start,[2]; [5],56+8 mmHg
same,Mean Pulse Pressure Administration,[2]; [5],19±3 mmHg
same,Mean Pulse Pressure Complete Recovery,[2]; [5],20+4 mmHg
same,Mean Pulse Pressure Moderate Recovery,[2]; [5],20+3 mmHg
same,Mean Pulse Pressure Muscle Relaxation End,[2]; [5],18±3 mmHg
same,Mean Pulse Pressure Muscle Relaxation Start,[2]; [5],18±3 mmHg
same,Mean Systolic Pressure mSP Administration,[2]; [5],80±8 mmHg
same,Mean Systolic Pressure mSP Complete Recovery,[2]; [5],84±7 mmHg
same,Mean Systolic Pressure mSP Moderate Recovery,[2]; [5],84±7 mmHg
same,Mean Systolic Pressure mSP Muscle Relaxation End,[2]; [5],75±10 mmHg
same,Mean Systolic Pressure mSP Muscle Relaxation Start,[2]; [5],74±9 mmHg
"CN(C)C(=O)Oc1cccc([N+](C)(C)C)c1 [Neostigmine, neostigmine methylsulfate]",Fluorescence Intensity CCL11 (Eosinophil activation chemokine),[1],6286.81
same,Fluorescence Intensity CCL12 (Monocyte chemotactic receptor 5),[1],5003.37
same,Fluorescence Intensity GM-CSF (Granulocyte-macrophage colony-stimulating factor),[1],1679.67
same,Fluorescence Intensity IL-1α (Interleukin 1α),[1],1891.15
same,Fluorescence Intensity IL-1β (Interleukin 1β),[1],1087.46
same,Fluorescence Intensity IL-3 (Interleukin 3),[1],1133.66
same,Fluorescence Intensity IL-4 (Interleukin 4),[1],3939.66
same,Fluorescence Intensity IL-5 (Interleukin-5),[1],1864.09
same,Fluorescence Intensity IL-6 (Interleukin-6),[1],2321.39
same,Fluorescence Intensity IL-15 (Interleukin-15),[1],1503.8
same,Fluorescence Intensity TNF-α (Tumor necrosis factor),[1],1116.77
same,effect on heart rate (in words),[2]; 0.0625 mg/kg,significant side effect of lowering heart rate
same,heart rate decrease,"[2]; 0.0625 mg/kg neostigmine, positive control group, summary statement",approximately 30%
same,Heart rate Administration,[2]; [6],238+42 bmp
same,Heart rate Complete Recovery,[2]; [6],157±49 bmp
same,Heart rate Moderate Recovery,[2]; [6],181±54 bmp
same,Heart rate Muscle Relaxation End,[2]; [6],239+11 bmp
same,Heart rate Muscle Relaxation Start,[2]; [6],240+14 bmp
same,Mean Arterial Pressure mAP Administration,[2]; [6],68+12 mmHg
same,Mean Arterial Pressure mAP Complete Recovery,[2]; [6],67+15 mmHg
same,Mean Arterial Pressure mAP Moderate Recovery,[2]; [6],69+12 mmHg
same,Mean Arterial Pressure mAP Muscle Relaxation End,[2]; [6],63+8 mmHg
same,Mean Arterial Pressure mAP Muscle Relaxation Start,[2]; [6],62+11 mmHg
same,Mean Diastolic Pressure mDP Administration,[2]; [6],60+10 mmHg
same,Mean Diastolic Pressure mDP Complete Recovery,[2]; [6],58+15 mmHg
same,Mean Diastolic Pressure mDP Moderate Recovery,[2]; [6],61+12 mmHg
same,Mean Diastolic Pressure mDP Muscle Relaxation End,[2]; [6],57+6 mmHg
same,Mean Diastolic Pressure mDP Muscle Relaxation Start,[2]; [6],56±9 mmHg
same,Mean Pulse Pressure Administration,[2]; [6],17±8 mmHg
same,Mean Pulse Pressure Complete Recovery,[2]; [6],19+6 mmHg
same,Mean Pulse Pressure Moderate Recovery,[2]; [6],19±8 mmHg
same,Mean Pulse Pressure Muscle Relaxation End,[2]; [6],14±5 mmHg
same,Mean Pulse Pressure Muscle Relaxation Start,[2]; [6],15+4 mmHg
same,Mean Systolic Pressure mSP Administration,[2]; [6],76±15 mmHg
same,Mean Systolic Pressure mSP Complete Recovery,[2]; [6],78±13 mmHg
same,Mean Systolic Pressure mSP Moderate Recovery,[2]; [6],79±13 mmHg
same,Mean Systolic Pressure mSP Muscle Relaxation End,[2]; [6],71±10 mmHg
same,Mean Systolic Pressure mSP Muscle Relaxation Start,[2]; [6],71±12 mmHg
same,Degree of heart rate decrease at complete muscle relaxation recovery,"[2]; positive control group, 0.0625 mg/kg i.v., vs heart rate at start of muscle relaxation",35%
